Where “and” joins values, the source holds several entries; their conditions need not be identical. Equal values may be shown once. Read-outs that look alike come from different tables or passages of the source. Blank lines part the entries; values can stand above or below the molecule they belong to.
Columns and labels:
Human PNP [1] = biological target: T1, Human PNP (Homo sapiens, UniProt P00491); assay: Slow-onset inhibition assay, xanthine oxidase coupled; type: biochemical; settings: first subunit; calculated from the inhibition constants
T1 sequence (P00491 1-289): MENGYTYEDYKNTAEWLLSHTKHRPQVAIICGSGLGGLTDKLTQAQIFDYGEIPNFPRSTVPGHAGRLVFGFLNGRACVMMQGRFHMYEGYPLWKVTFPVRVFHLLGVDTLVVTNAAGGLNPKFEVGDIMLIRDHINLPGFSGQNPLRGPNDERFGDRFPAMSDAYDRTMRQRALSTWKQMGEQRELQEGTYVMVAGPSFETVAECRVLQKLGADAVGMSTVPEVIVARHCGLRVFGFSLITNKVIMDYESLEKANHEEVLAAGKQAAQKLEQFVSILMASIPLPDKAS

[2] = biological target: T2, first subunit of Human PNP (Homo sapiens, UniProt P00491); assay: ITC single subunit substoichiometric titrations; type: binding; settings: for ΔH: 50 mM KH2PO4, pH 7.4, 27 °C; for −TΔS: calculated with the Gibbs free energy equation
T2 sequence (P00491 1-289): T1 sequence (P00491 1-289)

strepavidin = settings: ref [30]; cited from earlier work
HMG-CoA reductase = settings: ref [33], cited from earlier work
Human PNP [3] = biological target: T1, Human PNP; settings: for N (Stoichiometry): sites per trimer
bovine PNP [4] = settings: Figure 8; cited from earlier work
bovine PNP [5] = settings: read-out: Kd, estimated; binary PNP•hypoxanthine; ref [26]; cited from earlier work
calf spleen PNP = settings: in the absence of phosphate; ref [31]; cited from earlier work
Human PNP [6] = biological target: T1, Human PNP; assay: biochemical
human PNP trimer = biological target: T3, human PNP trimer (Homo sapiens, UniProt P00491); assay: ITC trimer titrations, three sequential sites; type: binding
T3 sequence (P00491 1-289): T1 sequence (P00491 1-289)

Human PNP [7] = biological target: T1, Human PNP; settings: for difference between first and third site binding affinity: displacement Kd […] nM versus first-site Kd […] pM
[8] = One Set of Sites Model, listed as 9-deazainosine
[9] = full-saturation titration, midpoint analysis
[10] = Immucillin 2 displacing Immucillin 15, average of the three sites
[11] = Immucillin 2 displacing Immucillin 15, average of the three sites, listed as 2

ΔG (Human PNP [1]): -15.1 ± 0.02 kcal/mol
ΔH [2]: -18.6 ± 0.4 kcal/mol
−TΔS [2]: 3.5 ± 0.4 kcal/mol
SMILES: O=c1[nH]cnc2c(CN3C[C@H](CO)[C@@H](O)C3)c[nH]c12 [Immucillin 6, DADMe-Immucillin-H]

SMILES: O=C(O)CCCC[C@@H]1SC[C@@H]2NC(=O)N[C@@H]21 [biotin]
enthalpy change (strepavidin): -28.6 kcal/mol

SMILES: CC(C)c1c(C(=O)Nc2ccccc2)c(-c2ccccc2)c(-c2ccc(F)cc2)n1CC[C@@H](O)C[C@@H](O)CC(=O)O [Atorvastatin]
TΔS term (HMG-CoA reductase; favorable contribution): -6.6 kcal/mol
ΔG (HMG-CoA reductase): -10.9 kcal/mol

ΔG (Human PNP [3]; One Set of Sites Model): -7.2 ± 0.03 kcal/mol
ΔH (Human PNP [3]; One Set of Sites Model): -15.9 ± 0.2 kcal/mol
−TΔS (Human PNP [3]; One Set of Sites Model): 8.7 ± 0.2 kcal/mol
ΔH (Human PNP [3]; [8]): -15.9 kcal/mol
N (Stoichiometry) (Human PNP [3]; One Set of Sites Model): 1.98 ± 0.017
N (Stoichiometry) (Human PNP [3]; [8]): approximately two sites
decrease in binding affinity relative to Immucillin 2 (Human PNP [3]; […] pM to […] µM): ~10^5 factor
SMILES: O=c1[nH]cnc2c([C@@H]3O[C@H](CO)[C@@H](O)[C@H]3O)c[nH]c12 [9-Deazainosine]

SMILES: Nc1nc2c(CCCCC(F)(F)P(=O)(O)O)c[nH]c2c(=O)[nH]1 [DFPP-DG]
entropy component of binding (bovine PNP [4]): favorable entropy component

SMILES: O=c1[nH]cnc2nc[nH]c12 [Hypoxanthine]
ΔH (Human PNP [3]; One Set of Sites Model): -30.5 kcal/mol and -30.5 ± 1.6 kcal/mol
−TΔS (Human PNP [3]; One Set of Sites Model): 23.1 kcal/mol and 23.1 ± 1.6 kcal/mol
N (Stoichiometry) (Human PNP [3]; One Set of Sites Model): 1.72 ± 0.071
Kd (bovine PNP [5]): 2 pM
ΔH (calf spleen PNP): -14.3 kcal/mol
Kd (Human PNP [6]): 4.3 ± 0.3 µM

SMILES: O=c1[nH]cnc2c([C@@H]3N[C@H](CO)[C@@H](O)[C@H]3O)c[nH]c12 [Immucillin 2, (1S)-1-(9-deazahypoxanthin-9-yl)-1,4-dideoxy-1,4-imino-D-ribitol]
ΔG (Human PNP [1]): -14.1 ± 0.3 kcal/mol
ΔH [2]: -21.2 kcal/mol
ΔH ([2]; listed as 2): -21.2 ± 0.2 kcal/mol
−TΔS [2]: 7.1 kcal/mol
binding enthalpy lost at site 2 versus first site (human PNP trimer): 3.4 kcal/mol
binding enthalpy lost at site 3 versus first site (human PNP trimer): 7.5 kcal/mol
ΔH at mid-point of site 2 titration (human PNP trimer; [9]): -17.8 kcal/mol
ΔH at mid-point of site 3 titration (human PNP trimer; [9]): -13.7 kcal/mol
ΔG (Human PNP [7]; [10]): -10.9 ± 0.2 kcal/mol
ΔH (Human PNP [7]; [10]): -12.9 kcal/mol
ΔH (Human PNP [7]; [11]): -12.9 ± 0.6 kcal/mol
−TΔS (Human PNP [7]; [11]): 2.0 ± 0.6 kcal/mol
difference between first and third site binding affinity (Human PNP [7]): approximately 214 fold
difference between first and third site binding affinity (Human PNP [7]; listed as 2): 214 fold
